Data from US20100031452A1, “AZO DYES” (Universite Catholique de Louvain, priority 2008, published 2010).
Converted amounts (≈) assume the structure as drawn. Where two headings read alike, the source gives them in different places. Marks after values point to notes of the source that are not given here.

Experiments:
[1] = test system: human intestinal cells (Caco-2); assay: Caco-2 cytotoxicity test; format: cell-based; conditions: for Caco-2 cytotoxicity test (IC50 in g L^−1): Caco-2 human intestinal cells
Description: (§1) Toxicity was assessed on human intestinal cells (Caco-2), bacterial cells (Lumistox assays) and fish eggs cells. Mutagenicity was assessed through classical Ames test.
(§2) The toxicity of compound 4 has been measured on Caco-2 human cells as previously described, and compared with the toxicity of compound 1.

Ames test: mutagenicity = format: cell-based; conditions: classical Ames test
Description: as §1

fish eggs cells = assay: Fish egg test; format: in vivo; conditions: for Fish egg test (IC50 in mg L^−1): in vivo
Description: as §1

[2] = test system: bacterial cells (Lumistox assays); assay: Lumistox test (luminescence inhibition); format: cell-based
Description: as §1

Caco-2 cytotoxicity test = format: cell-based, human; conditions: Caco-2 cells; Caco-2 human intestinal cells; read-out: Caco-2 cytotoxicity test (IC50 in g L^−1)
Description: as §1, §2

[3] = classical Ames test; published data; cited from earlier work

Compound | Caco-2 cytotoxicity test (IC50 in g L^−1) [1] [µg/mL] | Ames test: mutagenicity (Ames test: mutagenicity) | Fish egg test (IC50 in mg L^−1) (fish eggs cells) [µg/mL] | Lumistox test % of luminescence inhibition at maximal OD ([2]; at maximal OD) [%] | further results
Nc1ccc2cc(S(=O)(=O)[O-])cc(O)c2c1N=Nc1ccc(Cl)cc1C(F)(F)F.[Na+] [Acid Red 299] | >1000 | Positive | 250 to 500 | 50.2 | 
Nc1c(S(=O)(=O)O)cc(/N=N/c2c(S(=O)(=O)O)cc(NC3CCCCC3)c3c2C(=O)c2ccccc2C3=O)c2c1C(=O)c1ccccc1C2=O [Compound 1, 1-[(4-amino-9,10-dioxo-3-sulfo-9,10-dihydroanthracen-1-yl)diazenyl]-4-cyclohexylamino-9,10-dioxo-9,10-dihydroanthracene-2-sulfonic acid] |  | Negative |  |  | toxicity (in words) ([1]; in the range tested, with regards to other molecules available on the market): low toxicity; IC50 (Caco-2 cytotoxicity test): > 1000 µg/mL; IC50 (fish eggs cells; read-out: Fish egg test (IC50 in mg L^−1)): 294 µg/mL (≈ 411 µM); Lumistox test % of luminescence inhibition at maximal OD ([2]; up to a maximal optical density (OD) of 1800): 41.6** %
O=C1c2ccccc2C(=O)c2c(/N=N\c3cccc(S(=O)(=O)O)c3)c(S(=O)(=O)O)cc(NC3CCCCC3)c21 [Compound 4, 4-Cyclohexylamino-9,10-dioxo-1-(3-sulfo-phenylazo)-9,10-dihydro-anthracene-2-sulfonic acid] |  |  |  |  | toxicity less than the toxicity of compound 1 ([1]; Caco-2 human cells, FIG. 3, relative to compound 1): 30%
Nc1c(N=Nc2ccc(-c3ccc(N=Nc4cc(S(=O)(=O)[O-])c5ccccc5c4N)cc3)cc2)cc(S(=O)(=O)[O-])c2ccccc12.[Na+].[Na+] [Direct Red 28] | 300 ± 20 |  | <30 | 3.4 | Ames test: mutagenicity [3]: Positive*
CCN(CCO)c1ccc(N=Nc2ccc([N+](=O)[O-])cc2)cc1 [Disperse Red 1] | >1000 | Negative | 250 to 500 |  | Lumistox test % of luminescence inhibition at maximal OD ([2]; saturated solution): 61.3*** %
O=C(Nc1cc(S(=O)(=O)[O-])cc2cc(S(=O)(=O)[O-])c(N=Nc3cc(Nc4nc(Cl)nc(Nc5ccc(S(=O)(=O)[O-])cc5)n4)ccc3S(=O)(=O)[O-])c(O)c12)c1ccccc1.[Na+].[Na+].[Na+].[Na+] [Reactive Red 4] | 700 ± 60 | Negative | 500 to 1000 | 25.9 | 
